Some results are limits rather than exact numbers.

The values that follow come from patent EP0073845B1, “Imidazopyridine-spiro-piperidine compounds” (Yoshitomi Pharmaceutical Industries, Ltd., priority 1981, dated 1983).

In data set [1] the test system is apomorphine-induced vomiting. As to the kind of experiment: Effect on apomorphine-induced vomiting. It is filed as in vivo. The settings on record: Canis lupus familiaris, po, 2 hours prior to apomorphine hydrochloride (0.1 mg/kg, s.c.); incidence of vomiting checked for 2 hours; beagle dogs. The procedure: (1) Effect on apomorphine-induced vomiting
The test was performed according to the method described by M. Nakanishi et al: in "Arzneimittel-Forschung", vol. 21, 391 ff (1971).
Groups of 5-10 beagle dogs of both sexes each were used. The test compound was administered orally 2 hours prior to the treatment with apomorphine hydrochloride (0.1 mg/kg, s.c.). The incidence of vomiting was checked for 2 hours, and the ED50 (50% effective dose) was determined.

The next data set in a line: Cataleptogenic activity. The settings on record: rat, in vivo, ip; Wistar female rats; from total points of the maximum appearance of catatonia. As to the method:
(2) Cataleptogenic Activity
The test was performed according to the method described by W. Wirth et al. in "Archives Internationales de Pharmacodynamie et de Therapie", vol, 115, 1 ff (1958).
Groups of 5 Wistar female rats each were used. […] The ED50 was determined from total points of the maximum appearance of catatonia.

With `Cl.Cl.O.O=C1NC2CCCCN2C12CCN(CCCN1c3ccccc3CCc3ccccc31)CC2` (centres unmarked) [A, 1'-[3-(10,11-dihydro-5H-dibenz[b,f]azepin-5-yl)propyl]-1,2,3,5,6,7,8,8a-octahydro-2-oxo-imidazo[1,2-a]pyridine-3-spiro-4'-piperidine dihydrochloride monohydrate], the ED50 in data set [1] is 2.5 mg/kg; in the data set “Cataleptogenic activity” it was more than 50 mg/kg.

Consider `Cl.Cl.O.O=C1NC2CCCCN2C12CCN(CCCN1c3ccccc3CCc3ccc(Cl)cc31)CC2` (centres unmarked) [B, 1'-[3-(3-chloro-10,11-dihydro-5H-dibenz[b,f]azepin-5-yl)propyl]-1,2,3,5,6,7,8,8a-octahydro-2-oxo-imidazo[1,2-a]pyridine-3-spiro-4'-piperidine dihydrochloride monohydrate], for which the results for the ED50 (in data set [1]; in “Cataleptogenic activity”) were 0.5 mg/kg and more than 50 mg/kg, respectively.

As to `Cl.Cl.O.O=C1N=C2CCCCN2C12CCN(CCCN1c3ccccc3CCc3ccccc31)CC2` [C, 1'-[3-(10,11-dihydro-5H-dibenz[b,f]azepin-5-yl)propyl]-2,3,5,6,7,8-hexahydro-2-oxo-imidazo[1,2-a]pyridine-3-spiro-4'-piperidine dihydrochloride monohydrate], the ED50 in data set [1] is 2 mg/kg; in the data set “Cataleptogenic activity”, more than 50 mg/kg.

On to `CN(C)CCCN1c2ccccc2Sc2ccc(Cl)cc21` [Chlorpromazine, reference compound], for which the values for the 50% effective dose (ED50) (in data set [1]; in “Cataleptogenic activity”) were 5.1 mg/kg and 12 mg/kg, respectively.
